pKi: −log10 of the molar value.
target: T1, PknB (Mycobacterium tuberculosis, UniProt P9WI81); experiment: biochemical; set-up: species or system M. tuberculosis; settings: 3 nM PknB, 6 uM GarA, 3 μM ATP, 30 min; competitive tight-binding fit; several symbols in a cell = repeat determinations
T1 construct: made in house
T1 sequence (P9WI81 whole entry): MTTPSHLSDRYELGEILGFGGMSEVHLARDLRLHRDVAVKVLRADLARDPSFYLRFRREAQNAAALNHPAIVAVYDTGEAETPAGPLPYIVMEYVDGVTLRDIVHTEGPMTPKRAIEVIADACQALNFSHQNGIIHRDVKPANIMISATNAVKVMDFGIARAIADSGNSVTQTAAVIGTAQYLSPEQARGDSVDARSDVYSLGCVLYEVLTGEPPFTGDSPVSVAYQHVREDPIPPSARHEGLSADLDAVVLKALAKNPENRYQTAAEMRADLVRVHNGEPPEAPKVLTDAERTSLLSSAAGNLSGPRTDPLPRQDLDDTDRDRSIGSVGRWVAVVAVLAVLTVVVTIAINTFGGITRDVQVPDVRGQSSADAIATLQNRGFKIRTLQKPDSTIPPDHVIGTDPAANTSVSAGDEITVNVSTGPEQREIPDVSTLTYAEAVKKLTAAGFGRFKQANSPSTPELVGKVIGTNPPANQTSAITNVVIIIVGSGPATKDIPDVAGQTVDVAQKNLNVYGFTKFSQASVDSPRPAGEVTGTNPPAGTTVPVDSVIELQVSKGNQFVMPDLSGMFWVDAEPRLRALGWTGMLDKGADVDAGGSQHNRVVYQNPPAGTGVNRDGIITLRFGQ

SMILES	Ki Values
C#Cc1cnc(-c2ccc([C@@H](O)CCC)s2)nc1Nc1cc(C2CC2)n[nH]1 (stereo in doubt) [Compound 211, 1-[5-[4-[(5-cyclopropyl-2H-pyrazol-3-yl)amino]-5-ethynyl-pyrimidin-2-yl]-2-thienyl]butan-1-ol]	A**, A*, A*
Nc1cnc(-c2ccccc2)nc1Nc1cc(C2CC2)[nH]n1 [Compound 5, N-(5-cyclopropyl-1H-pyrazol-3-yl)-2-phenylpyrimidine-4,5-diamine]	A*, A
CS(=O)(=O)c1ccc(-c2nccc(Nc3cc(C4CC4)[nH]n3)n2)cc1 [Compound 15, N-(5-cyclopropyl-1H-pyrazol-3-yl)-2-(4-(methylsulfonyl)phenyl)pyrimidin-4-amine]	A*, A
CS(=O)(=O)c1ccc(-c2ncc(F)c(Nc3cc(C4CC4)[nH]n3)n2)cc1 [Compound 16, N-(5-cyclopropyl-1H-pyrazol-3-yl)-5-fluoro-2-(4-methylsulfonylphenyl)-pyrimidin-4-amine]	A*, A
CS(=O)(=O)c1ccc(-c2ncc(Cl)c(Nc3cc(C4CC4)[nH]n3)n2)cc1 [Compound 23, 5-chloro-N-(5-cyclopropyl-1H-pyrazol-3-yl)-2-(4-methylsulfonylphenyl)-pyrimidin-4-amine]	A, B**
Cc1cnc(-c2cccs2)nc1Nc1cc(C2CC2)[nH]n1 [Compound 38, N-(5-cyclopropyl-1H-pyrazol-3-yl)-5-methyl-2-(thiophen-2-yl)pyrimidin-4-amine]	A*, A

same assay, conditions: 3 nM PknB, 6 uM GarA, 3 μM ATP, 30 min; competitive tight-binding fit; several symbols in a cell = repeat determinations; read-out: Ki Values

SMILES	pKi
C[C@@H]1C[C@H]1c1cc(Nc2nc(-c3ccc(S(N)(=O)=O)s3)ncc2Cl)n[nH]1 (relative stereo) [Compound 320, 5-(5-chloro-4-(5-(trans-2-methylcyclopropyl)-1H-pyrazol-3-ylamino)pyrimidin-2-yl)thiophene-2-sulfonamide]	8.00 to 9.00
C#Cc1cnc(N2CC[C@H](NC(C)=O)C2)nc1Nc1cc(C2CC2)n[nH]1 (stereo in doubt) [Compound 195, N-[1-[4-[(5-cyclopropyl-2H-pyrazol-3-yl)amino]-5-ethynyl-pyrimidin-2-yl]pyrrolidin-3-yl]acetamide]	5.40 to 5.70
C#Cc1cnc(-c2ccc([C@@H](O)C(C)C)s2)nc1Nc1cc(C2CC2)n[nH]1 (stereo in doubt) [Compound 210, 1-[5-[4-[(5-cyclopropyl-2H-pyrazol-3-yl)amino]-5-ethynyl-pyrimidin-2-yl]-2-thienyl]-2-methyl-propan-1-ol]	7.30 to 8.00
c1ccc(-c2nccc(Nc3cc(C4CC4)n[nH]3)n2)cc1 [Compound 2, N-(5-cyclopropyl-2H-pyrazol-3-yl)-2-phenyl-pyrimidin-4-amine]	7.00 to 7.30
CC(=O)Nc1cnc(-c2ccccc2)nc1Nc1cc(C2CC2)n(C(C)=O)n1 [Compound 3, N-[4-[(1-acetyl-5-cyclopropyl-pyrazol-3-yl)amino]-2-phenyl-pyrimidin-5-yl]acetamide]	< 5.40
CC(=O)n1nc(Nc2nc(-c3ccccc3)ncc2N)cc1C1CC1 [Compound 4, 1-[3-[(5-amino-2-phenyl-pyrimidin-4-yl)amino]-5-cyclopropyl-pyrazol-1-yl]ethanone]	6.30 to 7.00
O=[N+]([O-])c1cnc(-c2ccccc2)nc1Nc1cc(C2CC2)[nH]n1 [Compound 6, N-(5-cyclopropyl-1H-pyrazol-3-yl)-5-nitro-2-phenylpyrimidin-4-amine]	< 5.40
Brc1c(C2CC2)n[nH]c1Nc1ccnc(-c2ccccc2)n1 [Compound 7, N-(4-bromo-5-cyclopropyl-2H-pyrazol-3-yl)-2-phenyl-pyrimidin-4-amine]	< 5.40
Brc1cnc(-c2ccccc2)nc1Nc1cc(C2CC2)n[nH]1 [Compound 8, 5-Bromo-N-(5-cyclopropyl-1H-pyrazol-3-yl)-2-phenylpyrimidin-4-amine]	6.30 to 7.00
CC#Cc1cnc(-c2ccccc2)nc1Nc1cc(C2CC2)n[nH]1 [Compound 9, N-(5-cyclopropyl-1H-pyrazol-3-yl)-2-phenyl-5-(prop-1-ynyl)pyrimidin-4-amine]	< 5.40
CC(=O)Nc1cnc(-c2ccccc2)nc1Nc1cc(C2CC2)[nH]n1 [Compound 10, N-(4-(5-cyclopropyl-1H-pyrazol-3-ylamino)-2-phenylpyrimidin-5-yl)acetamide]	5.70 to 6.00
C/C=C/c1cnc(-c2ccccc2)nc1Nc1cc(C2CC2)[nH]n1 [Compound 11, (E)-N-(5-cyclopropyl-1H-pyrazol-3-yl)-2-phenyl-5-(prop-1-enyl)pyrimidin-4-amine]	6.30 to 7.00
c1cc(Nc2cc(C3CC3)[nH]n2)nc(Nc2ccc3[nH]ncc3c2)n1 [Compound 13, N4-(5-cyclopropyl-1H-pyrazol-3-yl)-N2-(1H-indazol-5-yl)pyrimidine-2,4-diamine]	7.30 to 8.00
N#CCc1ccc(-c2nccc(Nc3cc(C4CC4)[nH]n3)n2)cc1 [Compound 17, 2-(4-(4-(5-cyclopropyl-1H-pyrazol-3-ylamino)pyrimidin-2-yl)phenyl)acetonitrile]	7.30 to 8.00
Cc1cnc(-c2ccc(S(C)(=O)=O)cc2)nc1Nc1cc(C2CC2)[nH]n1 [Compound 20, N-(5-cyclopropyl-1H-pyrazol-3-yl)-5-methyl-2-(4-(methylsulfonyl)phenyl)pyrimidin-4-amine]	6.30 to 7.00
OCc1ccc(-c2nccc(Nc3cc(C4CC4)[nH]n3)n2)s1 [Compound 22, (5-(4-(5-cyclopropyl-1H-pyrazol-3-ylamino)pyrimidin-2-yl)thiophen-2-yl)methanol]	7.30 to 8.00
Cc1cnc(-c2ccc(CC#N)cc2)nc1Nc1cc(C2CC2)[nH]n1 [Compound 24, 2-(4-(4-(5-cyclopropyl-1H-pyrazol-3-ylamino)-5-methylpyrimidin-2-yl)phenyl)acetonitrile]	7.30 to 8.00
c1csc(-c2nccc(Nc3cc(C4CC4)[nH]n3)n2)c1 [Compound 27, N-(5-cyclopropyl-1H-pyrazol-3-yl)-2-(thiophen-2-yl)pyrimidin-4-amine]	7.30 to 8.00
NS(=O)(=O)c1cccc(-c2nccc(Nc3cc(C4CC4)[nH]n3)n2)c1 [Compound 28, 3-[4-[(5-cyclopropyl-1H-pyrazol-3-yl)amino]pyrimidin-2-yl]benzenesulfonamide]	7.30 to 8.00
Clc1cnc(-c2cccs2)nc1Nc1cc(C2CC2)[nH]n1 [Compound 29, 5-chloro-N-(5-cyclopropyl-1H-pyrazol-3-yl)-2-(thiophen-2-yl)pyrimidin-4-amine]	7.00 to 7.30
NS(=O)(=O)c1cccc(-c2ncc(Cl)c(Nc3cc(C4CC4)[nH]n3)n2)c1 [Compound 30, 3-[5-chloro-4-[(5-cyclopropyl-1H-pyrazol-3-yl)amino]-pyrimidin-2-yl]benzenesulfonamide]	7.30 to 8.00
Cc1cnc(-c2cccc(S(N)(=O)=O)c2)nc1Nc1cc(C2CC2)[nH]n1 [Compound 31, 3-[4-[(5-cyclopropyl-1H-pyrazol-3-yl)amino]-5-methyl-pyrimidin-2-yl]benzenesulfonamide]	7.30 to 8.00
NC(=O)c1cc(-c2ncc(F)c(Nc3cc(C4CC4)[nH]n3)n2)ccc1Cl [Compound 34, 2-chloro-5-[4-[(5-cyclopropyl-1H-pyrazol-3-yl)amino]-5-fluoro-pyrimidin-2-yl]-benzamide]	7.30 to 8.00
NS(=O)(=O)c1cccc(-c2ncc(F)c(Nc3cc(C4CC4)[nH]n3)n2)c1 [Compound 35, 3-[4-[(5-cyclopropyl-1H-pyrazol-3-yl)amino]-5-fluoro-pyrimidin-2-yl]benzenesulfonamide]	7.30 to 8.00
